Data: ChEMBL document CHEMBL5126592, “Design, synthesis and activity against drug-resistant bacteria evaluation of C-20, C-23 modified 5-O-mycaminosyltylonolide derivatives” (Eur J Med Chem, 2022)
In brackets after ≈: the same amount, converted by molar mass. Activity calls are given as the source filed them. No cut-off for these calls is given here.

How the values were obtained:
Assay type in all cases: functional
[1] = system: Staphylococcus chromogenes; assay: Antibacterial activity against Staphylococcus chromogenes incubated for 16 to 20 hrs by broth microdilution method; conditions: time 16-20 hrs
Staphylococcus aureus [2] = assay: Antibacterial activity against Staphylococcus aureus incubated for 16 to 20 hrs by broth microdilution method; conditions: time 16-20 hrs
Enterococcus faecium = assay: Antibacterial activity against Enterococcus faecium incubated for 16 to 20 hrs by broth microdilution method; conditions: time 16-20 hrs
Klebsiella pneumoniae = assay: Antibacterial activity against Klebsiella pneumoniae ATCC 13883 incubated for 16 to 20 hrs by broth microdilution method; conditions: time 16-20 hrs
Pseudomonas aeruginosa = assay: Antibacterial activity against Pseudomonas aeruginosa LTP-3 incubated for 16 to 20 hrs by broth microdilution method; conditions: time 16-20 hrs
Escherichia coli [3] = assay: Antibacterial activity against Escherichia coli ATCC 25922 incubated for 16 to 20 hrs by broth microdilution method; conditions: time 16-20 hrs
Cronobacter sakazakii = assay: Antibacterial activity against Cronobacter sakazakii ATCC 29544 incubated for 16 to 20 hrs by broth microdilution method; conditions: time 16-20 hrs
[4] = system: Streptococcus dysgalactiae; assay: Antibacterial activity against Streptococcus dysgalactiae incubated for 16 to 20 hrs by broth microdilution method; conditions: time 16-20 hrs
Escherichia coli [5] = assay: Antibacterial activity against Escherichia coli incubated for 16 to 20 hrs by broth microdilution method; conditions: time 16-20 hrs
Staphylococcus aureus [6] = assay: Antibacterial activity against Staphylococcus aureus ATCC 25923 incubated for 16 to 20 hrs by broth microdilution method; conditions: time 16-20 hrs
Staphylococcus aureus [7] = assay: Antibacterial activity against Staphylococcus aureus ATCC 29213 incubated for 16 to 20 hrs using 10^3 CFU/ml bacterial inoculum by broth microdilution method; conditions: time 16-20 hrs
Staphylococcus aureus [8] = assay: Antibacterial activity against Staphylococcus aureus ATCC 29213 incubated for 16 to 20 hrs using 10^6 CFU/ml bacterial inoculum by broth microdilution method; conditions: time 16-20 hrs
Staphylococcus aureus [9] = assay: Antibacterial activity against Staphylococcus aureus ATCC 29213 at pH 8.6 incubated for 16 to 20 hrs in presence of 25% foetal bovine serum by broth microdilution method; conditions: time 16-20 hrs
Staphylococcus aureus [10] = assay: Antibacterial activity against Staphylococcus aureus ATCC 29213 at pH 8.6 incubated for 16 to 20 hrs in presence of 50% foetal bovine serum by broth microdilution method; conditions: time 16-20 hrs
Staphylococcus aureus [11] = assay: Antibacterial activity against Staphylococcus aureus ATCC 29213 incubated for 16 to 20 hrs using 10^4 CFU/ml bacterial inoculum by broth microdilution method; conditions: time 16-20 hrs
Escherichia coli [12] = assay: Induction of drug resistance in Escherichia coli ATCC 25922 assessed as increase in MIC measured after 30 passages by broth microdilution method
Staphylococcus aureus [13] = assay: Antibacterial activity against Staphylococcus aureus ATCC 29213 at pH 8.6 incubated for 16 to 20 hrs in presence of 5% foetal bovine serum by broth microdilution method; conditions: time 16-20 hrs
Staphylococcus aureus [14] = assay: Antibacterial activity against Staphylococcus aureus ATCC 29213 at pH 8.6 incubated for 16 to 20 hrs in presence of 10% foetal bovine serum by broth microdilution method; conditions: time 16-20 hrs
Staphylococcus aureus [15] = assay: Antibacterial activity against Staphylococcus aureus ATCC 29213 incubated for 16 to 20 hrs using 10^5 CFU/ml bacterial inoculum by broth microdilution method; conditions: time 16-20 hrs

Compound	MIC [1] [mg/L]	MIC (Staphylococcus aureus [2]) [mg/L]	MIC (Enterococcus faecium) [mg/L]	MIC (Klebsiella pneumoniae) [mg/L]	MIC (Pseudomonas aeruginosa) [mg/L]	MIC (Escherichia coli [3]) [mg/L]	MIC (Cronobacter sakazakii) [mg/L]	MIC [4] [mg/L]	MIC (Escherichia coli [5]) [mg/L]	MIC (Staphylococcus aureus [6]) [mg/L]	MIC (Staphylococcus aureus [7]) [mg/L]	MIC (Staphylococcus aureus [8]) [mg/L]	MIC (Staphylococcus aureus [9]) [mg/L]	MIC (Staphylococcus aureus [10]) [mg/L]	MIC (Staphylococcus aureus [11]) [mg/L]	Activity (Escherichia coli [12])	MIC (Staphylococcus aureus [13]) [mg/L]	MIC (Staphylococcus aureus [14]) [mg/L]	MIC (Staphylococcus aureus [15]) [mg/L]
CCCN1C[C@H](C)[C@@H](O)[C@](C)(O)[C@@H](CC)OC(=O)[C@H](C)[C@@H](O[C@H]2C[C@](C)(OC)[C@H](O)[C@@H](C)O2)[C@H](C)[C@@H](O[C@@H]2O[C@H](C)C[C@H](N(C)C)[C@H]2O)[C@](C)(O)C[C@H]1C	8 (≈ 10.3 µM)	8 (≈ 10.3 µM)	32 (≈ 41.2 µM)	16 (≈ 20.6 µM)	32 (≈ 41.2 µM)	16 (≈ 20.6 µM)	16 (≈ 20.6 µM)	32 (≈ 41.2 µM)	16 (≈ 20.6 µM)	4 (≈ 5.15 µM)	–	–	–	–	–	–	–	–	–
CC(=O)NC[C@H]1CN(c2ccc(N3CCOCC3)c(F)c2)C(=O)O1 [LINEZOLID]	1 (≈ 2.96 µM)	1 (≈ 2.96 µM)	2 (≈ 5.93 µM)	> 32	32 (≈ 94.9 µM)	> 32	> 32	2 (≈ 5.93 µM)	32 (≈ 94.9 µM)	–	0.25 (≈ 0.741 µM)	1 (≈ 2.96 µM)	> 32	> 32	0.25 (≈ 0.741 µM)	Active	> 32	> 32	0.5 (≈ 1.48 µM)
CC[C@H]1OC(=O)C[C@@H](O)[C@H](C)[C@@H](O[C@@H]2O[C@H](C)[C@@H](O)[C@H](N(C)C)[C@H]2O)[C@@H](CC=O)C[C@@H](C)C(=O)/C=C/C(C)=C/[C@@H]1CO	1 (≈ 1.67 µM)	1 (≈ 1.67 µM)	1 (≈ 1.67 µM)	> 32	32 (≈ 53.5 µM)	> 32	> 32	1 (≈ 1.67 µM)	> 32	0.5 (≈ 0.836 µM)	–	–	–	–	–	–	–	–	–
NC[C@H]1O[C@H](O[C@H]2[C@H](O)[C@@H](O[C@H]3O[C@H](CO)[C@@H](O)[C@H](N)[C@H]3O)[C@H](N)C[C@@H]2N)[C@H](N)C[C@@H]1O [TOBRAMYCIN]	2 (≈ 4.28 µM)	1 (≈ 2.14 µM)	32 (≈ 68.4 µM)	8 (≈ 17.1 µM)	32 (≈ 68.4 µM)	8 (≈ 17.1 µM)	16 (≈ 34.2 µM)	16 (≈ 34.2 µM)	> 32	8 (≈ 17.1 µM)	–	–	–	–	–	–	–	–	–
CC[C@H]1OC(=O)C[C@@H](O)[C@H](C)[C@@H](O[C@@H]2O[C@H](C)[C@@H](O)[C@H](N(C)C)[C@H]2O)[C@@H](CCN(C)Cc2cn(-c3cnc4ccccc4c3)nn2)C[C@@H](C)C(=O)/C=C/C(C)=C/[C@@H]1CN1CCCCCCC1	1 (≈ 1.09 µM)	0.5 (≈ 0.546 µM)	2 (≈ 2.18 µM)	1 (≈ 1.09 µM)	1 (≈ 1.09 µM)	2 (≈ 2.18 µM)	4 (≈ 4.37 µM)	0.5 (≈ 0.546 µM)	2 (≈ 2.18 µM)	0.125 (≈ 0.136 µM)	–	–	–	–	–	–	–	–	–
CC[C@H]1OC(=O)C[C@@H](O)[C@H](C)[C@@H](O[C@@H]2O[C@H](C)[C@@H](O)[C@H](N(C)C)[C@H]2O)[C@@H](CCN(C)Cc2cn(-c3cnc4ccccc4c3)nn2)C[C@@H](C)C(=O)/C=C/C(C)=C/[C@@H]1CN(C)C	0.5 (≈ 0.59 µM)	0.25 (≈ 0.295 µM)	1 (≈ 1.18 µM)	2 (≈ 2.36 µM)	2 (≈ 2.36 µM)	2 (≈ 2.36 µM)	4 (≈ 4.72 µM)	2 (≈ 2.36 µM)	2 (≈ 2.36 µM)	0.25 (≈ 0.295 µM)	–	–	–	–	–	–	–	–	–
